± gives the expanded uncertainty stated by the source.
Assay: activity coefficient (dimensionless); of the first substance listed, at infinite dilution; xn = mol fraction of the nth substance listed
Conditions: Liquid, Chromatography, x1 = 0

Row | SMILES | activity coefficient (323.15 K) | activity coefficient (333.15 K) | activity coefficient (343.15 K)
1 | CCC(=O)CC [pentan-3-one] + N#C[N-]C#N.N#C[N-]C#N.c1ccc(Cn2cc[n+](COCCCOC[n+]3ccn(Cc4ccccc4)c3)c2)cc1 | 2.88 ± 0.2 | 2.89 ± 0.2 | 2.91 ± 0.2
2 | CCCCCCCCCC [decane] + CCCCCCCCn1cc[n+](COCCC)c1C.O=S(=O)([N-]S(=O)(=O)C(F)(F)F)C(F)(F)F | 8.9 ± 0.61 | 8.47 ± 0.58 | 7.92 ± 0.54
3 | C#CCCCCC [1-heptyne] + N#C[N-]C#N.N#C[N-]C#N.c1ccc(Cn2cc[n+](COCCCOC[n+]3ccn(Cc4ccccc4)c3)c2)cc1 | 19.1 ± 1.3 | 17.2 ± 1.2 | 15.9 ± 1.1
4 | CCCCCCCCCCCC [dodecane] + N#C[N-]C#N.N#C[N-]C#N.c1ccc(Cn2cc[n+](COCCCOC[n+]3ccn(Cc4ccccc4)c3)c2)cc1 | 631 ± 43 | 634 ± 44 | 600 ± 41
5 | C1COCCO1 [1,4-dioxane] + CCCOC[n+]1ccn(Cc2ccccc2)c1.O=S(=O)([N-]S(=O)(=O)C(F)(F)F)C(F)(F)F | 0.4 ± 0.03 | 0.36 ± 0.03 | 0.35 ± 0.03
6 | c1ccsc1 [thiophene] + Cn1cc[n+](COCCCOC[n+]2ccn(C)c2)c1.N#C[N-]C#N.N#C[N-]C#N | 1.58 ± 0.1 | 1.63 ± 0.11 | 1.68 ± 0.11
7 | CO [methanol] + CCCCCCCCn1cc[n+](COCCC)c1C.N#C[N-]C#N | 0.32 ± 0.03 | 0.29 ± 0.03 | 0.28 ± 0.03
8 | CC#N [acetonitrile] + CCCCCCCCn1cc[n+](COCCC)c1C.O=S(=O)([N-]S(=O)(=O)C(F)(F)F)C(F)(F)F | 0.48 ± 0.04 | 0.46 ± 0.04 | 0.47 ± 0.04
9 | CCC(C)=O [butanone] + CCCOC[n+]1ccn(Cc2ccccc2)c1.F[B-](F)(F)F | 1.06 ± 0.07 | 0.96 ± 0.06 | 0.89 ± 0.06
10 | CCCCCCCCCCCCC [tridecane] + CCCOC[n+]1ccc(N(C)C)cc1.O=S(=O)([N-]S(=O)(=O)C(F)(F)F)C(F)(F)F | 102 ± 7 | 96.4 ± 6.6 | 81.9 ± 5.6
11 | CC(C)CO [2-methyl-1-propanol] + CCCOC[n+]1ccn(Cc2ccccc2)c1.F[B-](F)(F)F | 2.86 ± 0.19 | 2.53 ± 0.17 | 2.34 ± 0.16
12 | CC1CCCCC1 [methylcyclohexane] + Cn1cc[n+](COCCCOC[n+]2ccn(C)c2)c1.O=S(=O)([N-]S(=O)(=O)C(F)(F)F)C(F)(F)F.O=S(=O)([N-]S(=O)(=O)C(F)(F)F)C(F)(F)F | 21 ± 1.4 | 18.3 ± 1.2 | –
13 | CCCC(C)=O [pentan-2-one] + CCCOC[n+]1ccn(Cc2ccccc2)c1.F[B-](F)(F)F | 1.79 ± 0.12 | 1.76 ± 0.12 | 1.82 ± 0.12
14 | C1CCCCC1 [cyclohexane] + CCCOC[n+]1ccn(C)c1.N#C[N-]C#N | 26.6 ± 1.8 | 24.3 ± 1.7 | 22.7 ± 1.6
15 | CCCCCCC [heptane] + CCCCCCCCn1cc[n+](COCCC)c1C.N#C[N-]C#N | 8.88 ± 0.61 | 8.18 ± 0.56 | 7.95 ± 0.54
16 | CCO [ethanol] + Cn1cc[n+](COCCCOC[n+]2ccn(C)c2)c1.O=S(=O)([N-]S(=O)(=O)C(F)(F)F)C(F)(F)F.O=S(=O)([N-]S(=O)(=O)C(F)(F)F)C(F)(F)F | 1.06 ± 0.07 | 0.96 ± 0.06 | 0.89 ± 0.06
17 | c1ccsc1 [thiophene] + CCCOC[n+]1ccn(C)c1.F[B-](F)(F)F | 2.26 ± 0.15 | 2.27 ± 0.15 | 2.27 ± 0.15
18 | ClC(Cl)Cl [trichloromethane] + CCCOC[n+]1ccn(Cc2ccccc2)c1.O=S(=O)([N-]S(=O)(=O)C(F)(F)F)C(F)(F)F | 0.73 ± 0.05 | 0.65 ± 0.04 | 0.66 ± 0.05
19 | CCCCCCCCCCC [undecane] + CCCCCCCCn1cc[n+](COCCCOC[n+]2ccn(CCCCCCCC)c2C)c1C.O=S(=O)([N-]S(=O)(=O)C(F)(F)F)C(F)(F)F.O=S(=O)([N-]S(=O)(=O)C(F)(F)F)C(F)(F)F | 12.4 ± 0.85 | 11.1 ± 0.76 | 10.6 ± 0.72
20 | ClC(Cl)(Cl)Cl [tetrachloromethane] + Cn1cc[n+](COCCCOC[n+]2ccn(C)c2)c1.N#C[N-]C#N.N#C[N-]C#N | 6.68 ± 0.46 | 6.94 ± 0.47 | 7 ± 0.48
21 | CCCCCCCCCCCCC [tridecane] + CCCOC[n+]1ccn(C)c1.F[B-](F)(F)F | 1640 ± 110 | 1630 ± 110 | 1630 ± 110
22 | CCO [ethanol] + CCCOC[n+]1ccc(N(C)C)cc1.O=S(=O)([N-]S(=O)(=O)C(F)(F)F)C(F)(F)F | 1.57 ± 0.1 | 1.47 ± 0.1 | 1.4 ± 0.09

Row | SMILES | activity coefficient (323.15 K) | activity coefficient (333.15 K) | activity coefficient (343.15 K)
23 | CCc1ccccc1 [ethylbenzene] + CCCCCCCCn1cc[n+](COCCCOC[n+]2ccn(CCCCCCCC)c2C)c1C.N#C[N-]C#N.N#C[N-]C#N | 1.32 ± 0.09 | 1.34 ± 0.09 | 1.36 ± 0.09
24 | CCCO [propan-1-ol] + CCCCCCCCn1cc[n+](COCCCOC[n+]2ccn(CCCCCCCC)c2C)c1C.N#C[N-]C#N.N#C[N-]C#N | 0.32 ± 0.03 | 0.32 ± 0.03 | 0.31 ± 0.03
25 | CC#N [acetonitrile] + CCCCCCCCn1cc[n+](COCCCOC[n+]2ccn(CCCCCCCC)c2C)c1C.O=S(=O)([N-]S(=O)(=O)C(F)(F)F)C(F)(F)F.O=S(=O)([N-]S(=O)(=O)C(F)(F)F)C(F)(F)F | 0.26 ± 0.03 | 0.25 ± 0.03 | 0.25 ± 0.03
26 | CCCCCCCCCC [decane] + CCCOC[n+]1ccn(C)c1.O=S(=O)([N-]S(=O)(=O)C(F)(F)F)C(F)(F)F | 69.6 ± 4.8 | 60.5 ± 4.2 | 53 ± 3.6
27 | CCCCCCCCCCC [undecane] + CCCOC[n+]1ccn(C)c1.N#C[N-]C#N | 556 ± 38 | 504 ± 35 | 432 ± 30
28 | CO [methanol] + N#C[N-]C#N.N#C[N-]C#N.c1ccc(Cn2cc[n+](COCCCOC[n+]3ccn(Cc4ccccc4)c3)c2)cc1 | 0.52 ± 0.04 | 0.51 ± 0.04 | 0.52 ± 0.04
29 | C[N+](=O)[O-] [nitromethane] + CCCCCCCCn1cc[n+](COCCC)c1C.O=S(=O)([N-]S(=O)(=O)C(F)(F)F)C(F)(F)F | 0.56 ± 0.04 | 0.52 ± 0.04 | 0.52 ± 0.04
30 | ClC(Cl)(Cl)Cl [tetrachloromethane] + CCCOC[n+]1ccn(C)c1.N#C[N-]C#N | 4.04 ± 0.28 | 4.08 ± 0.28 | 4.39 ± 0.3
31 | ClCCl [dichloromethane] + CCCCCCCCn1cc[n+](COCCCOC[n+]2ccn(CCCCCCCC)c2C)c1C.O=S(=O)([N-]S(=O)(=O)C(F)(F)F)C(F)(F)F.O=S(=O)([N-]S(=O)(=O)C(F)(F)F)C(F)(F)F | 0.3 ± 0.03 | 0.3 ± 0.03 | 0.32 ± 0.03
32 | CC(C)OC(C)C [diisopropyl ether] + CCCOC[n+]1ccn(C)c1.O=S(=O)([N-]S(=O)(=O)C(F)(F)F)C(F)(F)F | 4.69 ± 0.32 | 4.82 ± 0.33 | 4.46 ± 0.3
33 | C1COCCO1 [1,4-dioxane] + Cn1cc[n+](COCCCOC[n+]2ccn(C)c2)c1.N#C[N-]C#N.N#C[N-]C#N | 1.09 ± 0.07 | 1.11 ± 0.07 | 1.13 ± 0.07
34 | CCC(=O)CC [pentan-3-one] + CCCOC[n+]1ccn(C)c1.F[B-](F)(F)F | 3.34 ± 0.23 | 3.36 ± 0.23 | 3.41 ± 0.23
35 | CC(C)CO [2-methyl-1-propanol] + N#C[N-]C#N.N#C[N-]C#N.c1ccc(Cn2cc[n+](COCCCOC[n+]3ccn(Cc4ccccc4)c3)c2)cc1 | 1.79 ± 0.12 | 1.67 ± 0.11 | 1.61 ± 0.11
36 | CO [methanol] + Cn1cc[n+](COCCCOC[n+]2ccn(C)c2)c1.O=S(=O)([N-]S(=O)(=O)C(F)(F)F)C(F)(F)F.O=S(=O)([N-]S(=O)(=O)C(F)(F)F)C(F)(F)F | 0.76 ± 0.05 | 0.75 ± 0.05 | 0.68 ± 0.05
37 | CCCCCC [hexane] + CCCCCCCCn1cc[n+](COCCCOC[n+]2ccn(CCCCCCCC)c2C)c1C.O=S(=O)([N-]S(=O)(=O)C(F)(F)F)C(F)(F)F.O=S(=O)([N-]S(=O)(=O)C(F)(F)F)C(F)(F)F | 3.74 ± 0.25 | 3.59 ± 0.24 | 3.45 ± 0.23
38 | C1CCCCC1 [cyclohexane] + CCCOC[n+]1ccc(N(C)C)cc1.O=S(=O)([N-]S(=O)(=O)C(F)(F)F)C(F)(F)F | 7.06 ± 0.48 | 6.83 ± 0.47 | 6.37 ± 0.43
39 | CCc1ccccc1 [ethylbenzene] + CCCOC[n+]1ccn(C)c1.F[B-](F)(F)F | 11 ± 0.75 | 10.8 ± 0.74 | 10.7 ± 0.73
40 | CCO [ethanol] + CCCCCCCCn1cc[n+](COCCC)c1C.N#C[N-]C#N | 0.39 ± 0.03 | 0.38 ± 0.03 | 0.38 ± 0.03
41 | C1COCCO1 [1,4-dioxane] + N#C[N-]C#N.N#C[N-]C#N.c1ccc(Cn2cc[n+](COCCCOC[n+]3ccn(Cc4ccccc4)c3)c2)cc1 | 1.32 ± 0.09 | 1.32 ± 0.09 | 1.35 ± 0.09
42 | CC(C)O [propan-2-ol] + CN(C)c1cc[n+](COCCCOC[n+]2ccc(N(C)C)cc2)cc1.O=S(=O)([N-]S(=O)(=O)C(F)(F)F)C(F)(F)F.O=S(=O)([N-]S(=O)(=O)C(F)(F)F)C(F)(F)F | 1.42 ± 0.09 | 1.3 ± 0.08 | 1.18 ± 0.08
43 | c1ccccc1 [benzene] + CN(C)c1cc[n+](COCCCOC[n+]2ccc(N(C)C)cc2)cc1.O=S(=O)([N-]S(=O)(=O)C(F)(F)F)C(F)(F)F.O=S(=O)([N-]S(=O)(=O)C(F)(F)F)C(F)(F)F | 0.66 ± 0.05 | 0.67 ± 0.05 | 0.68 ± 0.05
44 | C[N+](=O)[O-] [nitromethane] + CCCOC[n+]1ccn(C)c1.O=S(=O)([N-]S(=O)(=O)C(F)(F)F)C(F)(F)F | 0.55 ± 0.04 | 0.53 ± 0.04 | 0.53 ± 0.04
